The values that follow are results of earlier work, collected in patent US6709666B2, “Insecticidal mat and heat-transpiration insecticidal method using the same” (Dainihon Jochugiku Co., Ltd., priority 2000, dated 2004).

For the data set the following is noted: at 20° C.

As for `C#CC(OC(=O)C1C(C=C(C)C)C1(C)C)/C(C)=C/CC` (stereo not shown) [empenthrin], the vapor pressure is reported as 87 mPa.
